Measured values: ChEMBL document CHEMBL3991601, “The target landscape of clinical kinase drugs” (Science, 2017)
Activity calls are given as the source filed them.

Legend:
[1] = target: RAC-gamma serine/threonine-protein kinase (Homo sapiens, UniProt Q9Y243)
[2] = target: T1, Septin-9 (Homo sapiens, UniProt Q9UHD8)
T1 sequence (Q9UHD8 whole entry): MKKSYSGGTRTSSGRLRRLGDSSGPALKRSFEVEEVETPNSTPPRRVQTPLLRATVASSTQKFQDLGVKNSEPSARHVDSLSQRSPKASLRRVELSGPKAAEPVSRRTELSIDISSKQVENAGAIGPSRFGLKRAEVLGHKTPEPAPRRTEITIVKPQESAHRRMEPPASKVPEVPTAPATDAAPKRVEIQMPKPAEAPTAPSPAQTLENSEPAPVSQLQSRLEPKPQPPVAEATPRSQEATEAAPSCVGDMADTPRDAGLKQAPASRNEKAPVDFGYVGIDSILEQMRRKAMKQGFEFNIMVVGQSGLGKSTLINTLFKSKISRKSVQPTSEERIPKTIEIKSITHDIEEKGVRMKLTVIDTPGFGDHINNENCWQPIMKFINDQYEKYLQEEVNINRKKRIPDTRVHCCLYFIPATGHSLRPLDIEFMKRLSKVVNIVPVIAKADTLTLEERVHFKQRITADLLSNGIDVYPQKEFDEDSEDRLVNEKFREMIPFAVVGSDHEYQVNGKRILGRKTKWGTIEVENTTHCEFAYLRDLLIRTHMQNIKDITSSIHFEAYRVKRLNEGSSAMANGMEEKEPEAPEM

[3] = target: Ephrin type-A receptor 2 (Homo sapiens, UniProt P29317)
Chain of Ephrin type-A receptor 2 (P29317 whole entry): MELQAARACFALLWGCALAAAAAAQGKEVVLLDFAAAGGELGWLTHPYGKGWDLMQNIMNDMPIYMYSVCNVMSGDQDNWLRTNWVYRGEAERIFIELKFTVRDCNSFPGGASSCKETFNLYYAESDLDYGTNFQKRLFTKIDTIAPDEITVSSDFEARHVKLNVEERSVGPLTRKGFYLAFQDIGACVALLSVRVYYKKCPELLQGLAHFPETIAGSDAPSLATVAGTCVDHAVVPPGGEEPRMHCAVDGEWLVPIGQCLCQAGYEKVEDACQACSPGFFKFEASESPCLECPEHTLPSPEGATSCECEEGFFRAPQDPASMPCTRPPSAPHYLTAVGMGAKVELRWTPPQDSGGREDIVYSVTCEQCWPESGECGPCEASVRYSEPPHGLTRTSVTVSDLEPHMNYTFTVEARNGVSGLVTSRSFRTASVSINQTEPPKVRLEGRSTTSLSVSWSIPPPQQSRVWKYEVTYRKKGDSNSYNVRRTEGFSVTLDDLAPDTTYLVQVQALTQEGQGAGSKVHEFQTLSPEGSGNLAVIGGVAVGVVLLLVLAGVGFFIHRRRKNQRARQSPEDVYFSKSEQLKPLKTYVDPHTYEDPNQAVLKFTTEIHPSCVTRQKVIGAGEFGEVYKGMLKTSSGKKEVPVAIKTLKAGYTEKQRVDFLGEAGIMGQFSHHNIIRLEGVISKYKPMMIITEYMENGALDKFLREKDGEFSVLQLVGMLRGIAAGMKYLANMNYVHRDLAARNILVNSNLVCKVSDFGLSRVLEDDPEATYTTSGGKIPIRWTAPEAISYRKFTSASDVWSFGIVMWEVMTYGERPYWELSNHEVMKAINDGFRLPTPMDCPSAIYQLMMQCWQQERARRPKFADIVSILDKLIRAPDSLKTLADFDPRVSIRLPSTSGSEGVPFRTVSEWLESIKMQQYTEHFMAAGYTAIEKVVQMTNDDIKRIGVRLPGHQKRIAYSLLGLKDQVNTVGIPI

[4] = target: Myosin light chain kinase, smooth muscle (Homo sapiens, UniProt Q15746)
Chain of Myosin light chain kinase, smooth muscle (Q15746 whole entry): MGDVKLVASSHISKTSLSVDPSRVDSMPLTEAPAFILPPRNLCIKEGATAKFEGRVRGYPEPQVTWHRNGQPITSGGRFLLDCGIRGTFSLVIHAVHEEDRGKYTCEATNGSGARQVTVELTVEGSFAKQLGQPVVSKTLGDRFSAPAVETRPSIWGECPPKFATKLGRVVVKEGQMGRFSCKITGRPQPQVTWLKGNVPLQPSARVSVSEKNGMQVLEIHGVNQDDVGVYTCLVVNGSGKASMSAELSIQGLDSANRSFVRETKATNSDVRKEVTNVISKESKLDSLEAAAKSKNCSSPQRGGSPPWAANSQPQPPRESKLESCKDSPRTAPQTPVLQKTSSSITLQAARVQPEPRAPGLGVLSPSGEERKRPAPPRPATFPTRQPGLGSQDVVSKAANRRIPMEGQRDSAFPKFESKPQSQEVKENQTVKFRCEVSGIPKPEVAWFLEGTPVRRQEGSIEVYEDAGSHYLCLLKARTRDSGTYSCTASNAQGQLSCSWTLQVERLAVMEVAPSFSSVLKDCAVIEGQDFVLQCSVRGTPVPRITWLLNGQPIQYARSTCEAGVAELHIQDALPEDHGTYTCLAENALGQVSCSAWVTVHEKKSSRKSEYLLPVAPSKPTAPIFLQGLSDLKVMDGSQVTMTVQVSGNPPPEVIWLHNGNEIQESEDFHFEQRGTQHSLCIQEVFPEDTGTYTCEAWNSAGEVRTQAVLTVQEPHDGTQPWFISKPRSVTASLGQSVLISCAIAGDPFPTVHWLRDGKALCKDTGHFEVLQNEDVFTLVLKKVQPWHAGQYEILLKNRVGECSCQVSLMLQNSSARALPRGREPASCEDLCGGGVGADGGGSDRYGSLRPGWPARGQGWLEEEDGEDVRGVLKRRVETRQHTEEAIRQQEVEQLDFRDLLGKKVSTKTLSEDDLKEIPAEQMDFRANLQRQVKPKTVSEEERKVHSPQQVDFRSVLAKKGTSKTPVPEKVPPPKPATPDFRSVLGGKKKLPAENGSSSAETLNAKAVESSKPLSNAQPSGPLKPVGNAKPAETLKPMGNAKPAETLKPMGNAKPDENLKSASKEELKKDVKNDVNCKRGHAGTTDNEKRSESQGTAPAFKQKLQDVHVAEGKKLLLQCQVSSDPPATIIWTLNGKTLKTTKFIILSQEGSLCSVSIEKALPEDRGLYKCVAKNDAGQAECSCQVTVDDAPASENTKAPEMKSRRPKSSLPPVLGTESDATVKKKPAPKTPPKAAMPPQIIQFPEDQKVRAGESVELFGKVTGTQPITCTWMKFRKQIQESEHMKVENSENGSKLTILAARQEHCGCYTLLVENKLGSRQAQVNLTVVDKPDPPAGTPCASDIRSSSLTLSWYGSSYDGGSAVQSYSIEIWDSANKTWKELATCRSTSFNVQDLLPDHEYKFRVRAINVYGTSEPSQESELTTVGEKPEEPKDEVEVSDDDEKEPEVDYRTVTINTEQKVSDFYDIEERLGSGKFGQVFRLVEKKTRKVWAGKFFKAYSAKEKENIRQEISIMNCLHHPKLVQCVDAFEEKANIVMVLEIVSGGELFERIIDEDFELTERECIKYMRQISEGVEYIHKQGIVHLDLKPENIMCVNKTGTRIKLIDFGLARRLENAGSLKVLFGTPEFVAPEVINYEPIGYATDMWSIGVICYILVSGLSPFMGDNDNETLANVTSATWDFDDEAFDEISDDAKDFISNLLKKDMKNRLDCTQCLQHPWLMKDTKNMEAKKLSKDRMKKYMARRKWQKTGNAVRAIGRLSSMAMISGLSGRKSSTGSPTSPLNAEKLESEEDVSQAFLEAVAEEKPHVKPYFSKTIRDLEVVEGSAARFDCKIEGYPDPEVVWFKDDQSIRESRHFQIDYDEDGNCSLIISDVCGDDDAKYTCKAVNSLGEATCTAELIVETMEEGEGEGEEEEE

[5] = target: Tyrosine-protein kinase CSK (Homo sapiens, UniProt P41240)
Chain of Tyrosine-protein kinase CSK (P41240 whole entry): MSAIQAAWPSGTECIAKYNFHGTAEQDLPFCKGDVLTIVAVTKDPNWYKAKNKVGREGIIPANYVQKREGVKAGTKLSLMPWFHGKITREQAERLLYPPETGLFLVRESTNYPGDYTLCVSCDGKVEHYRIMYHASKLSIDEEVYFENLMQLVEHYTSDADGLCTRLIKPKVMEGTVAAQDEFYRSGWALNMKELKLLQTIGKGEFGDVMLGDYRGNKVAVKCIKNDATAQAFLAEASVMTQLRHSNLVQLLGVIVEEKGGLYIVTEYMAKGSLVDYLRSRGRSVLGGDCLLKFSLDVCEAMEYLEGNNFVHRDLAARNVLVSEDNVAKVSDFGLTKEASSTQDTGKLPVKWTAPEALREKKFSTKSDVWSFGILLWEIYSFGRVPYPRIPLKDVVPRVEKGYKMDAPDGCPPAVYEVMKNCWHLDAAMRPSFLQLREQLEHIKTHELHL

[6] = target: TRAF2 and NCK-interacting protein kinase (Homo sapiens, UniProt Q9UKE5)
Chain of TRAF2 and NCK-interacting protein kinase (Q9UKE5 whole entry): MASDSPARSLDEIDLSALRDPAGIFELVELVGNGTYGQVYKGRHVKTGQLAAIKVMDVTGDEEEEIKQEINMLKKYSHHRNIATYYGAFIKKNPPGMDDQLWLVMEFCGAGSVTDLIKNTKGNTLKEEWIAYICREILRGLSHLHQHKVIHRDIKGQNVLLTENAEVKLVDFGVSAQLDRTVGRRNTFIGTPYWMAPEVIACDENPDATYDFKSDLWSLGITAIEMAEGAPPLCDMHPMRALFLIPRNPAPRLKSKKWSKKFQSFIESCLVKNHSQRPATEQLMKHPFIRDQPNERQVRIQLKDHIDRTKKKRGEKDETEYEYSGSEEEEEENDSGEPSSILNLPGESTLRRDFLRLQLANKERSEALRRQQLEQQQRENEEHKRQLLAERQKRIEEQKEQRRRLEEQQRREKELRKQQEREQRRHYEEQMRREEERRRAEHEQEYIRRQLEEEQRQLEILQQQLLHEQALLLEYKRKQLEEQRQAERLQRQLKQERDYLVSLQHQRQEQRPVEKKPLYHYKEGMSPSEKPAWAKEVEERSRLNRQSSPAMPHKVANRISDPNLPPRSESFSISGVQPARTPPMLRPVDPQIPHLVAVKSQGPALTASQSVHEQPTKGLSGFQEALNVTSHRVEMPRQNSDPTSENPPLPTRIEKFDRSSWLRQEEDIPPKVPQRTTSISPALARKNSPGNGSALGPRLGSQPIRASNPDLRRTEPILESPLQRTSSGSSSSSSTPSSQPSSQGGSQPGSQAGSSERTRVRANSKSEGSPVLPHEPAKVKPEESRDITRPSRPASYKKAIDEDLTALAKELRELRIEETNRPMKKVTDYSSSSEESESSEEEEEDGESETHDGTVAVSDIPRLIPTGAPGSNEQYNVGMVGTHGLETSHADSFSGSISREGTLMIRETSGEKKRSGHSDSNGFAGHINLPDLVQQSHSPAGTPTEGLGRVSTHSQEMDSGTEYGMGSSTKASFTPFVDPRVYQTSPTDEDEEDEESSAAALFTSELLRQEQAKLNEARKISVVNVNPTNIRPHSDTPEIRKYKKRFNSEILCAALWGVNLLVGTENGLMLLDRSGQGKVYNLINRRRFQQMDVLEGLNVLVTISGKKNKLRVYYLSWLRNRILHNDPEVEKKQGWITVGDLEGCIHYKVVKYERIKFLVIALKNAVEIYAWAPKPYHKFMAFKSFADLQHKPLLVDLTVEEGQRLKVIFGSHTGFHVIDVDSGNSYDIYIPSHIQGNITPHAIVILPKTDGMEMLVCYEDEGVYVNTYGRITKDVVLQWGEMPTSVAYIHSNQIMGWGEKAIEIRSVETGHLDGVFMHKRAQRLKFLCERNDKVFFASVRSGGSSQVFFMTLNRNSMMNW

[7] = target: T2, Bifunctional phosphoribosylaminoimidazole carboxylase/phosphoribosylaminoimidazole succinocarboxamide synthetase (Homo sapiens, UniProt P22234)
T2 sequence (P22234 whole entry): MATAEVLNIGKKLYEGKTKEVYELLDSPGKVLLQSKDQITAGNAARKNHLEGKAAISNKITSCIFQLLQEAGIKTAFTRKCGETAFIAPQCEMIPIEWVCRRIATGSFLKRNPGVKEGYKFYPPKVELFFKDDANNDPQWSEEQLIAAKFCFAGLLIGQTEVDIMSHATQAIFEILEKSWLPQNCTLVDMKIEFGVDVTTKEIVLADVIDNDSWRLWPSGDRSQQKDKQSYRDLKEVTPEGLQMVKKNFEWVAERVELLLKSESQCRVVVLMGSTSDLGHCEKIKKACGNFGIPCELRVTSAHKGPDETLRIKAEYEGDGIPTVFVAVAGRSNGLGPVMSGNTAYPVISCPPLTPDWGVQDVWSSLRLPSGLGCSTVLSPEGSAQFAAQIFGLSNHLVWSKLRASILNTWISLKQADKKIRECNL

[8] = target: Casein kinase I isoform delta (Homo sapiens, UniProt P48730)
Chain of Casein kinase I isoform delta (P48730 whole entry, canonical isoform): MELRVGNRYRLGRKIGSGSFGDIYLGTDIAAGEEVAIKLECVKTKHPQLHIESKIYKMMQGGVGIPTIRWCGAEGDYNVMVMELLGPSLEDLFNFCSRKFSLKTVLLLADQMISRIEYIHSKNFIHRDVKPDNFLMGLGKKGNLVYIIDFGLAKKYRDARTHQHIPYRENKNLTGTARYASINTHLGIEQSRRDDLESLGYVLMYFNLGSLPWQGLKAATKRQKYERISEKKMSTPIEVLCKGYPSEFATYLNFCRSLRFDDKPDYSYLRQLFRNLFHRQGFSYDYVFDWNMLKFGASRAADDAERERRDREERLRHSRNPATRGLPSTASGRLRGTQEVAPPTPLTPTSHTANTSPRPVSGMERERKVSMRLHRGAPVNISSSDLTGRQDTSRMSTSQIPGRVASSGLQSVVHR

[9] = target: T3, NUAK family SNF1-like kinase 2 (Homo sapiens, UniProt Q9H093)
T3 sequence (Q9H093 whole entry): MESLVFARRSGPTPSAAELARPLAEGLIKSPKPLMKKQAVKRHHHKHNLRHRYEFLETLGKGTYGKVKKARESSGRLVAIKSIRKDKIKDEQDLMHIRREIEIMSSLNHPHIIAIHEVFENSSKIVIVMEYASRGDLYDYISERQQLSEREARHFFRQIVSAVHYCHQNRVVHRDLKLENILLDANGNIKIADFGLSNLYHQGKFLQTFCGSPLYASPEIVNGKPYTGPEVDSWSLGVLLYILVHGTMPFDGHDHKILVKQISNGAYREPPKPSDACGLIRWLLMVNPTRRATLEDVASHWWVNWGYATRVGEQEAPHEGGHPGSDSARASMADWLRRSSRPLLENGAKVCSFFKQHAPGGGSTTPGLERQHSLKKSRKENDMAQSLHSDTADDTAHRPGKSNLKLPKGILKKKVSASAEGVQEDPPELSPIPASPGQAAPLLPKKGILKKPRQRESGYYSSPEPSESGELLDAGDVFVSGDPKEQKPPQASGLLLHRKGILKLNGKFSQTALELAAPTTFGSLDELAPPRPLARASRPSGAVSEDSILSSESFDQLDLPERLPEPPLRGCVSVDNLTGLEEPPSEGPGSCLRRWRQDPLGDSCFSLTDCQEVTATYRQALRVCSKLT

[10] = target: T4, Activin receptor type-1B (Homo sapiens, UniProt P36896)
T4 sequence (P36896 whole entry): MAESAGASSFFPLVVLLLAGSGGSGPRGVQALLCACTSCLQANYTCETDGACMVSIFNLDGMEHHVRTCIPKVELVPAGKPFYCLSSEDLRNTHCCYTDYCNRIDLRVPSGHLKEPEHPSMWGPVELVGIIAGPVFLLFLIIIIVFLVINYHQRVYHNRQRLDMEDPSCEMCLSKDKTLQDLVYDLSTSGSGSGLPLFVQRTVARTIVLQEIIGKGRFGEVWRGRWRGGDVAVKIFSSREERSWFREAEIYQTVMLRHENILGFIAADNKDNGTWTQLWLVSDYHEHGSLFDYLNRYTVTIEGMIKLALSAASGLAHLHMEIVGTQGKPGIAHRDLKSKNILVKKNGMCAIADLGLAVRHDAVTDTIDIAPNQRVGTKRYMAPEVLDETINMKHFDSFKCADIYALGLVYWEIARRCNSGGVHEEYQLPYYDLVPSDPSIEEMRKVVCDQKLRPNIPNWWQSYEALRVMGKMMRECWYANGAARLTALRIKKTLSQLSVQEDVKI

[11] = target: T5, Rab-like protein 3 (Homo sapiens, UniProt Q5HYI8)
T5 sequence (Q5HYI8 whole entry): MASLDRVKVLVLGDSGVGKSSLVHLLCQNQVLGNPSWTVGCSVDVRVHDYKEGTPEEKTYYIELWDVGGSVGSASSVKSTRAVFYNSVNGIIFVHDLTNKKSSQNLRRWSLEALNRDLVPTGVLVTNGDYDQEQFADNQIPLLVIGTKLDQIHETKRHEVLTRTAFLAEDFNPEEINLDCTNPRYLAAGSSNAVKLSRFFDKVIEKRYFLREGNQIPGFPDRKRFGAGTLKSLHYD

Measured: Kd
Further: in the data inactive means no Kd found up to 30 µM.

O=c1sn(-c2cccc3ccccc23)c(=O)n1Cc1ccccc1 [TIDEGLUSIB]
inactive: [1] > 30 µM | [2] > 30 µM | [3] > 30 µM | [4] > 30 µM | [5] > 30 µM | [6] > 30 µM | [7] > 30 µM | [8] > 30 µM | [9] > 30 µM | [10] > 30 µM | [11] > 30 µM

CNS(=O)(=O)Nc1nccc(Cc2c(C)c3ccc(Oc4ncccn4)cc3oc2=O)c1F [AVUTOMETINIB]
inactive: [1] > 30 µM | [2] > 30 µM | [3] > 30 µM | [4] > 30 µM | [5] > 30 µM | [6] > 30 µM | [7] > 30 µM | [8] > 30 µM | [9] > 30 µM | [10] > 30 µM | [11] > 30 µM

Cc1ccc(S(=O)(=O)Nc2nc3ccccc3nc2Nc2ccc3nsnc3c2)cc1
inactive: [1] > 30 µM | [2] > 30 µM | [3] > 30 µM | [4] > 30 µM | [5] > 30 µM | [6] > 30 µM | [7] > 30 µM | [8] > 30 µM | [9] > 30 µM | [10] > 30 µM | [11] > 30 µM

CN1CCC(CNc2ccc3ncc(-c4cccc(OC(F)(F)F)c4)n3n2)CC1 [SGI-1776]
inactive: [1] > 30 µM | [2] > 30 µM | [3] > 30 µM | [4] > 30 µM | [5] > 30 µM | [6] > 30 µM | [7] > 30 µM | [8] > 30 µM | [9] > 30 µM | [10] > 30 µM | [11] > 30 µM

CCCS(=O)(=O)Nc1ccc(F)c(C(=O)c2c[nH]c3ncc(-c4ccc(Cl)cc4)cc23)c1F [VEMURAFENIB]
inactive: [1] > 30 µM | [2] > 30 µM | [3] > 30 µM | [4] > 30 µM | [5] > 30 µM | [6] > 30 µM | [7] > 30 µM | [8] > 30 µM | [9] > 30 µM | [10] > 30 µM | [11] > 30 µM

C=CC(=O)N1CCC(Oc2cc3c(Nc4ccc(Cl)c(Cl)c4F)ncnc3cc2OC)CC1 [POZIOTINIB]
inactive: [1] > 30 µM | [2] > 30 µM | [3] > 30 µM | [4] > 30 µM | [5] > 30 µM | [6] > 30 µM | [7] > 30 µM | [8] > 30 µM | [9] > 30 µM | [10] > 30 µM | [11] > 30 µM
